In patent US10603332B2, “Anti-obesity composition” (SUNSTAR INC., priority 2013, dated 2020):

Test system: preadipocyte 3T3-L1 cells
Experiment: Suppression of fat droplet accumulation in adipocytes (Oil Red O staining, OD 490 nm)
Format: cell-based, mouse
Conditions: for Relative amount of fat accumulation: 3T3-L1 adipocytes, samples added Day 0 to Day 7 or 8 at the concentrations of each (Comparative) Example, medium to which nothing was added regarded as 100; for amount of fat accumulation: control (Comparative Example 1b) = 100; for relative amount of fat accumulation in adipocytes: control = 100
Method: Because they are immortalized cells, they can be mass-produced as fibroblasts before induction of differentiation. […] The passage media used were passage medium A (DMEM (4.5 g/L Glu), (Sigma, glucose, […]), 10% BS (Gibco, 16170), and 1% antibiotic (Gibco, Antibiotic-Antimycotic, 15240-062)) and passage medium B (DMEM (4.5 g/L Glu), 10% FBS (Biowest, S1560), and 1% antibiotic). The differentiation-inducing medium used was prepared by adding a 10-μg/mL insulin solution (Wako, 093-06351), 0.25 μM Dexamethasone (Sigma, D4902), and 0.11-mg/mL 3-isobutyl-1-methylxanthine (Sigma, 15879) to passage medium B. The differentiation-promoting medium used was prepared by adding a 5-μg/mL insulin solution to passage medium B. The differentiation-inducing medium and the differentiation-promoting medium were prepared before use. The oleuropein used was an “oleuropein” reagent available from Sigma. In the experiment, the oleuropein was used in such an amount that the final concentration was 50 μM. The hydroxytyrosol used was a “hydroxytyrosol” reagent available from Sigma. In the experiment, the hydroxytyrosol was used in such an amount that the final concentration was 25 μM. The willow extract used was a water extract (dry powder) of young branches including sprouts of willow (a plant mixture containing at least one or more members selected from Salix daphnoides, Salix purpurea, Salix fragilis, and Salix alba). In the experiment, the extract was diluted with the medium so that the final concentrations were 2.5, 5, 12.5, 25, 50, 100, and 200 μg/mL. The sulforaphane used was a “sulforaphane” reagent available from Sigma. In the experiment, a 100-mM DMSO solution was prepared, and diluted with the medium. A 5-mM γ-orizanol solution was prepared, and diluted with the medium. […] Embryo mouse) was grown in passage medium A. […] Sumilon Celltight C-1) so that the concentration was 2.5×10^4 cells/well. The cells were cultured for 2 days at 37° C. in the presence of 5% CO2. Thereafter, the medium was replaced with passage medium B. After confluent growth, culture was continued for about 2 days in passage medium B, and the medium was replaced with the differentiation-inducing medium (Day 0). Within 48 hours after the differentiation of the cells was induced in the differentiation-inducing medium, the medium was replaced with the differentiation-promoting medium (Day 2). Each sample was continuously added from the time of the replacement of the differentiation-inducing medium (Day 0) to Day 7 or 8. Cold 10% formalin/PBS was prepared by adding 10% (v/v) formalin to PBS (phosphate buffered saline) and adjusting the pH to 7.4, and then stored at 4° C. In this experiment, a 10% neutral buffered formalin solution (Wako, 060-03845) was used. The stain solution used was a 0.5% Oil Red O/isopropanol solution. Oil Red O (Wako, 154-02072) was dissolved in isopropanol (Sigma) by shaking to prepare a saturated solution. The 0.5% Oil Red 0/isopropanol solution and distilled water were mixed at a ratio of 3:2 immediately before use (preparation before use). The 3T3-L1 cells in the well plate cultured to Day 7 or 8 by the above culture method were used. Cold 10% formalin/PBS (0.5 mL/well) was added to the well plate containing the medium, and allowed to stand at room temperature. After the medium was removed, cold 10% formalin/PBS (0.5 mL/well) was newly added, and allowed to stand at room temperature. After the formalin solution was removed, the well plate was washed 2 or 3 times with distilled water (1 mL/well) to completely remove the remaining […]. After the well plate was washed once with 60% isopropanol (0.5 mL/well), the filtered stain solution was added at 1 mL/well, and allowed to stand at room temperature. After staining, the well plate was washed once with 60% isopropanol (0.5 mL/well), and washed 2 or 3 times with distilled water (1 mL/well). […] The eluted isopropanol solution was measured by a microplate reader at OD 490 nm. […]

Row | Molecule | Relative amount of fat accumulation | further results
1 | C/C=C1/[C@H](O[C@@H]2O[C@H](CO)[C@@H](O)[C@H](O)[C@H]2O)OC=C(C(=O)OC)[C@H]1CC(=O)OCCc1ccc(O)c(O)c1 [1a, Oleuropein] | 99.9 | –
2 | OCCc1ccc(O)c(O)c1 [2b, Hydroxytyrosol] | 99.3 | –
3 | C[S+]([O-])CCCCN=C=S (stereo not shown) [3a, Sulforaphane] | 110.7 | –
4 | OCCc1ccc(O)c(O)c1 [3b, Hydroxytyrosol] | 78.4 | –
5 | C[S+]([O-])CCCCN=C=S (stereo not shown) [5a, Sulforaphane] | 100.9 | –
6 | C[S+]([O-])CCCCN=C=S (stereo not shown) [5b, Sulforaphane] | 104.8 | –
7 | C[S+]([O-])CCCCN=C=S (stereo not shown) [6b, Sulforaphane] | 100.8 | –
8 | C[S+]([O-])CCCCN=C=S (stereo not shown) [Comparative Example 4a, Sulforaphane] | 109.8 | –
9 | OCCc1ccc(O)c(O)c1 [hydroxytyrosol] | – | amount of fat accumulation (25 μM added alone): around 100; fat accumulation-suppressing effect higher than that of the control (37.5 μM added alone): about 25%
10 | C/C=C1/[C@H](O[C@@H]2O[C@H](CO)[C@@H](O)[C@H](O)[C@H]2O)OC=C(C(=O)OC)[C@H]1CC(=O)OCCc1ccc(O)c(O)c1 [oleuropein] | – | relative amount of fat accumulation in adipocytes (50 μM added alone): around 100
11 | C[S+]([O-])CCCCN=C=S (stereo not shown) [sulforaphane] | – | amount of fat accumulation (0.25 or 2.5 μM added alone): around 100; relative amount of fat accumulation in adipocytes (0.5 to 1.25 μM added alone): around 100
12 | γ-Orizanol [7b] | 78.5 | –
13 | γ-Orizanol [Comparative Example 6a] | 51.4 | –
14 | γ-orizanol | – | fat accumulation-suppressing effect higher than that of the control (0.5 μM added alone): about 25%
